According to patent US9939427B2, “Method for evaluating the scent performance of perfumes or perfume mixtures” (Symrise AG, priority 2013, dated 2018):

How the values were obtained:
[1] = test system: HEK293 cells transfected with all cofactors and pCI plasmids without ORs; assay: Ca-imaging of control HEK293 cells without OR; type: cell-based
Summary of the method: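 HEK293 cells transfected by calcium phosphate with empty pCI plus Gα15, RTP1, Myr-Ric8A, HSC70 and mCherry, incubated 48–60 h, then loaded with 3 µM Fura-2/AM for 30–45 min. Odorants in Ringer's applied as mixtures at 200 µM each or singly at 100–200 µM, with 0.25 mM ATP at the end. Ca2+ followed as 340/380 nm ratio every 4 s; responses as ΔF/F0, judged by timing, amplitude above twice baseline noise and curve shape.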

OR10Q1-614 = assay: Ca-imaging of mutant OR10Q1 in HEK293 cells; type: cell-based, human; conditions: 200 μM, applied for 20 seconds
From the text: Mutations were introduced for OR1B1 and OR10Q1 by Overlap Extension PCR (OEP). […] Flanking primers in combination with internal primers provided mutated gene segments, Full length primers included EcoRI and NotI restriction sites for further cloning into pCI expression vector. Site-directed mutations were selected for base of minor allele frequency of nucleotide.
In mutagenesis by overlap extension PCR method, initial PCRs provided mutated gene segments, with overlapping complementary 3′ ends carrying desired point mutation that were then mixed and used as template for a subsequent PCR to generate the full-length product. Overlapping strands of these intermediate products hybridize at this 3′ region in a subsequent PCR and are extended to generate the full-length product amplified by flanking primers; this shown in FIG. 2. […]
Calcium imaging of the transfected HEK293 cells was done by using chambers determinate an inverted microscope (Olympus; IX70) using a 10× objective (CPIanFL N Olympus). Fluorescence emission was determined every 4 s by using a CCD camera (Charge Coupled Device, C9100 Hamamatsu). […] Odorants were manually monitored to drop each 4-5 s to transfected cells. […]
In experiments, Fura-2 Acetoxymethylester (Fura-2/AM) was applied. […] According to this feature, the analysis of 340/380 nm excitation ratio for Fura-2 allows to quantify intracellular calcium levels. […]

OR10Q1 = biological target: T1, OR10Q1 (Homo sapiens, UniProt Q8NGQ4); assay: Ca-imaging of OR10Q1-transfected HEK293 cells; type: cell-based; design: key to OR10Q1 responded to odorant: ▪: 18 olfactory receptors responded to 32 odorants in related with specific anosmia; conditions: for Response of OR10Q1 to odorant, in words: single odorants 200 μM
T1 construct: specific primers, which amplify the complete open reading frame; expressed in transfected cells; host or cells: HEK293
T1 sequence (Q8NGQ4 1-319): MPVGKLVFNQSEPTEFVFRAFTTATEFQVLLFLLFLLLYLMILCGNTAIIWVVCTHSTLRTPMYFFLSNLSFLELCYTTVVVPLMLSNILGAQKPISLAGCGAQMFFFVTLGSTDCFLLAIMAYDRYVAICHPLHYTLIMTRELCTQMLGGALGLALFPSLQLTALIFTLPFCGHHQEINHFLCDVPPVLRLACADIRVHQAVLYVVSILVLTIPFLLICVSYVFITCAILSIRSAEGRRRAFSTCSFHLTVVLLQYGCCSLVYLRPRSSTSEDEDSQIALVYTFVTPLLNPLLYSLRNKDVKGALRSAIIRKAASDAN
Procedure: HEK293 cells were cultivated in Petri dishes (Ø35 mm) as previously described (Benbernou et al. 2007). We grow up HEK293 cells in culture medium containing standard DMEM with 10% heat-inactivated fetal bovine serum, 2 mM L-glutamine, 100 units/ml penicillin, and 100 units/ml streptomycin in a humidified atmosphere (37° C., 5% CO2). After 2-3 days, the transfection process was carried out, whereby the cell culture was 70-80% confluent. The calciumphosphate method was applied to transfect DNA plasmid transiently in HEK293 cells in case of Ca-imaging method.
Calcium cations and phosphate anions created crystal precipitations coupled with DNA which could invade into the cells through endocytosis. Cells were transiently transfected with plasmid DNA which consists of pCI expression vector and PCR-amplified full-length cDNA of olfactory receptors candidates, and also Gα15, RTP1, Myr-Ric8A, HSC70, and m-Cherry as cofactors. The precipitation could be created after 15-20 min, with dropping the transfection solution on HEK293 cells. Before measuring by Ca-imaging cells were incubated 48-60 hours at 370 C, 5% CO2. Cationic liposome-mediated transfection method was applied to transfect DNA plasmid transiently in HANA3A cells in case of CRE-Luciferase and CRE-SEAP assays.
Calcium imaging of the transfected HEK293 cells was done by using chambers determinate an inverted microscope (Olympus; IX70) using a 10× objective (CPIanFL N Olympus). Fluorescence emission was determined every 4 s by using a CCD camera (Charge Coupled Device, C9100 Hamamatsu). The capillary tube which was responsible to supply odorants was generated closely above the cells. The columns filled with odorants, DMSO and ATP. Odorants were manually monitored to drop each 4-5 s to transfected cells. Solutions with drop wise form spread on HEK293 cells in 35 mm dishes.
In experiments, Fura-2 Acetoxymethylester (Fura-2/AM) was applied. The non-polar Fura2/AM is fluorescent but not yet calcium-sensitive. Once diffuses into cell plasma, Fura-2/AM is hydrolyzed to Fura-2 which is calcium-sensitive and functions as Ca2+ chelator. Regardless of the presence of calcium, Fura-2 emits at the wavelength of 510 nm. Once Fura-2 binds to free intracellular Ca2+ in cell plasma, its ratio of excitation at wavelengths of 340 nm and 380 nm is changed and correlated to the amount of intracellular Ca2+. According to this feature, the analysis of 340/380 nm excitation ratio for Fura-2 allows to quantify intracellular calcium levels.
In preparation for Ca-imaging measurements, transfected HEK293 cells were added 3 it Fura2/AM (3 μM) and incubated 30-45 min at 370 C, 5% CO2. After this step, experiments were carried out in a dark condition (Fura-2 is light-sensitive). After the incubation, medium of cell culture was replaced with 2 ml Ringer's solution.
Odorants were freshly prepared with DMSO as 1 M stocks solutions. Six mixtures (200 μM each chemical) were applied to cells sequentially (20 s each mixture/30 s Ringer). Those ORs tested with single odorants that had generated a response to odorant mixture group previously. Odorants were prepared in 100-200 μM concentration.
Ringer's solution was used for washing cells between measuring by two different odorants. Positive response was determined by the timing of the response, the strength of the response (more than twofold higher than the noise amplitude of the baseline), and the shape of the response curve (sharp rise in curve with gradual recovery). […]

- OR10Q1 responded to odorant (OR10Q1; Ca-imaging, HEK293 cells, individual odorant 200 μM, significant response p<0.05): ▪
- Response of OR10Q1 to odorant, in words (OR10Q1; Ca-imaging): responded
- Response of OR10Q1 to odorant, in words (OR10Q1; Ca-imaging, listed as Cyclopentadecanolide): significantly responded
- Response of OR10Q1 to odorant, in words (OR10Q1; Ca-imaging, listed as Pentadecalactone): responded
- Number of cell responses, Experiment (OR10Q1) (OR10Q1; odorant 200 μM, approximately 2000 transfected cells in three times of measuring (Table 4, FIG. 5)): 52
Structure (SMILES): O=C1CCCCCCCCCCCCCCO1 [Pentadecanolide, ω-cyclopentadecanolide]
- Response of control cells, in words ([1]; 200 μM (FIG. 13)): did not respond
- Number of cell responses, Control ([1]; odorant 200 μM, three times of measuring (Table 4, FIG. 5)): 2
- Response of mutated OR10Q1 in comparison with OR10Q1 WT (OR10Q1-614): does not show any significant difference
- Response of mutated OR10Q1 in comparison with OR10Q1 WT (OR10Q1-614; listed as pentadecalactone): did not show any difference
